Test results published in US6342503B1, “1N-alkyl-n-arylpyrimidinamines and derivatives thereof” (DuPont Pharmaceuticals Company, priority 1993, dated 2002).

Target: T1, CRF receptor (Rattus norvegicus, UniProt P35353)
T1 construct: 100 μl of membrane suspension as prepared above to give a total reaction volume of 300 μl; from tissue; host or cells: rat cerebral cortex membrane homogenate
T1 sequence (P35353 24-415): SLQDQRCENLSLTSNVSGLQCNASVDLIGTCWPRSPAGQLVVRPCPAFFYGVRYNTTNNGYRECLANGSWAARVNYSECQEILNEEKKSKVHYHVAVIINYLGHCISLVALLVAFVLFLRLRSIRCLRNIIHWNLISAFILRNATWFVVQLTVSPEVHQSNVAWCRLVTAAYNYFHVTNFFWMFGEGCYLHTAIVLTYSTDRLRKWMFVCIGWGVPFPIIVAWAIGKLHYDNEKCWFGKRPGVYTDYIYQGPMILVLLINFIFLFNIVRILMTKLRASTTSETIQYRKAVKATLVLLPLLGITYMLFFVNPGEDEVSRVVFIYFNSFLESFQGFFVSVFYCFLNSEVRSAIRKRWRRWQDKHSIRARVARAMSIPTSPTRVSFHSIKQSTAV
Experiment: In vitro CRF receptor binding assay (competition with [125I] ovine CRF, rat cortex membranes)
Details: competition with [125I] ovine CRF, 2 h at 22° C.; Ki classes; read-out: Inhibition Ki
Method: In vitro Receptor Binding Assay
Tissue Preparation: Male Sprague Dawley rats (180-200 g) were sacrificed by decapitation and the cortex was dissected on ice, frozen whole in liquid nitrogen and stored at −70° C. until use. On the day of assay, frozen tissue was weighed and homogenized in 20 volumes of ice cold buffer containing 50 mM Tris, 10 mM MgCl2, 2 mM EGTA, pH 7.0 at 22° C. using a Polytron (Brinkmann Instruments, Westbury, N.Y.; setting 6) for 20 s. The homogenate was centrifuged at 48,000× g for 10 min at 4° C. The supernatant was discarded, and the pellet was re-homogenized in the same volume of buffer and centrifuged at 48,000× g for 10 min at 4° C. The resulting pellet was resuspended in the above buffer to a final concentration of 20-40 mg original wet weight/mL and used in the assays described below.
CRF Receptor Binding: Receptor binding assays were carried out essentially as described by E. B. De Souza, J. Neurosci. […]
All assays were carried out at equilibrium for 2 h at 22° C. as described by E. B. De Souza, J. Neurosci. […] The reaction was terminated by centrifugation of the tubes in a Beckman microfuge for 5 min at 12,000× g. Aliquots of the supernatant were collected to determine the “free” radioligand concentration. The remaining supernatant was aspirated and the pellets washed gently with ice-cold PBS plus 0.01% Triton X-100; centrifuged again and monitored for bound radioactivity as described above. […] This program has the distinct advantage of fitting the raw experimental data on an untransformed coordinate system where errors are most likely to be normally distributed and uncorrelated with the independent variable. […] The parameters for the affinity constants (KD) and receptor densities (Bmax) are also provided along with statistics on the general “fit” of the estimated parameters to the raw data.
Competition Curve Analysis
The resulting pellets were surface washed twice by centrifugation with 1 mL of ice-cold phosphate buffered saline and 0.01% Triton X-100; the supernatants discarded and the pellets monitored for radioactivity at approximately 80% efficiency. The level of non-specific binding was defined in the presence of […] unlabeled rat/humanCRF (r/hCRF). Data from competition curves were analyzed by the program LIGAND. […] Routinely, the data were analyzed using a one- and two-site model comparing the “goodness of fit” between the models in order to accurately determine the Ki. Statistical analyses provided by LIGAND allowed the determination of whether a single-site or multiple-site model should be used.
In Table 17; the Ki values were determined using the assay conditions described above.

Structure (SMILES) | Ki [nM]
CCSc1cc(C(C)=NOC)ccc1N(CC)c1nc(C)cc(C)n1 [compound 176, N-(2-ethylthio-4-methoxyiminoethylphenyl)-N-ethyl-4,6-dimethyl-2-pyrimidinamine] | < 500
CCN(c1nc(C)cc(C)n1)c1ccc(C(C)=NOC)cc1SC [compound 178, N-(2-methylthio-4-methoxyiminoethylphenyl)-N-ethyl-4,6-dimethyl-2-pyrimidinamine] | < 500
CCN(c1nc(C)cc(C)n1)c1ccc(C(C)=NOC)cc1S(C)(=O)=O [compound 179, N-(2-methylsulfonyl-4-methoxyiminoethylphenyl)-N-ethyl-4,6-dimethyl-2-pyrimidinamine] | 2000 to 10000

Same assay, conditions: read-out: Inhibition Ki

Structure (SMILES) | Ki [nM]
CCN(c1nc(C)cc(OCCN(C)C)n1)c1ccc(C(C)C)cc1Br [compound 161] | < 500
CCN(c1nc(C)cc(OCCC[S+](C)[O-])n1)c1ccc(C(C)C)cc1Br (centres unmarked) [compound 162] | < 500
CCN(c1nc(C)cc(NCCN(C)C)n1)c1ccc(C(C)C)cc1Br [compound 163] | 501 to 2000
CCN(c1nc(C)cc(Cl)n1)c1ccc(C(C)C)cc1I [compound 167, N-(2-iodo4-(1-methylethyl)phenyl)-N-ethyl-4-chloro-6-methyl-2-pyrimidinamine] | < 500
CCN(c1nc(C)cc(N2CCSC2)n1)c1ccc(C(C)C)cc1I [compound 171, N-(2-iodo-4-(1-methylethyl)phenyl)-N-ethyl-4-thiazolidino-6-methyl-2-pyrimidinamine] | < 500
CCN(c1nc(C)cc(C)n1)c1ccc(COC)cc1I [compound 172, N-(2-iodo-4-methoxymethylphenyl)-N-ethyl-4,6-dimethyl-2-pyrimidinamine] | < 500
Cc1cc(C)nc(N2CCCSc3cc(C(C)C)ccc32)n1 [compound 173] | 501 to 2000
CCSc1cc(C(C)C)ccc1N(CC)c1nc(C)cc(C)n1 [compound 175, N-(2-ethylthio-4-(1-methylethyl)phenyl)-N-ethyl-4,6dimethyl-2-pyrimidinamine] | 501 to 2000
CCN(c1nc(C)cc(OC[C@@H]2CCCN2C)n1)c1ccc(C(C)C)cc1SC [compound 177, N-(2-methylthio4-(1-methylethyl)phenyl)-N-ethyl-4(S)-(N-methyl-2′-pyrrolidinomethoxy)-6-methyl-2-pyrimidinamine] | 501 to 2000
CCc1ccc(N(CC)c2nc(C)cc(C)n2)c(SC)c1 [compound 182, N-(4-ethyl-2-methylthiophenyl)-N-ethyl-4,6-dimethyl-2-pyrimidinamine] | < 500
CCN(c1nc(C)cc(C)n1)c1ccc(C(C)OC)cc1SC (centres unmarked) [compound 189, N-(4-(1-methoxyethyl)-2-methylthiophenyl)-N-ethyl-4,6-dimethyl-2-pyrimidinamine] | < 500
CCOc1ccc(N(CC)c2nc(C)cc(C)n2)c(Br)c1 [compound 201] | < 500
CCN(c1nc(C)cc(C)n1)c1ccc(OC)cc1Br [compound 206] | < 500
CCN(c1nc(C)cc(COC)n1)c1ccc(C(C)C)cc1I [compound 207] | < 500
CCN(c1nc(C)cc(COc2ccc(OC)cc2)n1)c1ccc(C(C)C)cc1Br [compound 208] | < 500
CCN(c1nc(C)cc(COc2ccccc2)n1)c1ccc(C(C)C)cc1Br [compound 209] | < 500
CCN(c1nc(C)cc(COc2ccccn2)n1)c1ccc(C(C)C)cc1Br [compound 210] | 501 to 2000
CCN(c1nc(C)cc(COCc2cc(OC)c(OC)c(OC)c2)n1)c1ccc(C(C)C)cc1Br [compound 212] | < 500
CCN(c1nc(C)cc(COc2ncccn2)n1)c1ccc(C(C)C)cc1Br [compound 213] | < 500
CCN(c1nc(C)cc(COc2cc(OC)c(OC)c(OC)c2)n1)c1ccc(C(C)C)cc1Br [compound 214] | 501 to 2000
CCN(c1nc(C)cc(COc2cccc(N(C)C)c2)n1)c1ccc(C(C)C)cc1Br [compound 215] | 501 to 2000
CCN(c1nc(C)cc(COCc2cccnc2)n1)c1ccc(C(C)C)cc1Br [compound 216] | < 500
CCN(c1nc(C)cc(COc2ccc(-n3ccnc3)cc2)n1)c1ccc(C(C)C)cc1Br [compound 218] | < 500
CCN(c1nc(C)cc(COCc2ccncc2)n1)c1ccc(C(C)C)cc1Br [compound 219] | < 500
CCN(c1nc(C)cc(COCc2ccco2)n1)c1ccc(C(C)C)cc1Br [compound 221] | < 500

Structure (SMILES) | Ki [nM]
CCN(c1nc(C)cc(C=O)n1)c1ccc(C(C)C)cc1Br [compound 222, N-(2-Bromo-4-(1-methylethyl)phenyl)-N-ethyl-4-formyl-6-methyl-2-pyrimidinamine] | 501 to 2000
CCN(c1nc(C)cc(COCCO)n1)c1ccc(C(C)C)cc1Br [compound 225, N-(2-Bromo-4-(1-methylethyl)phenyl)-N-ethyl-4-hydroxyethoxymethyl-6-methyl-2-pyrimidinamine] | < 500
CCN(c1nc(C)cc(COCCOC)n1)c1ccc(C(C)C)cc1Br [compound 227] | < 500
CCN(c1nc(C)cc(COCC(=O)N2CCOCC2)n1)c1ccc(C(C)C)cc1Br [compound 229] | 2000 to 10000
CCN(c1nc(C)cc(COCCN2CCOCC2)n1)c1ccc(C(C)C)cc1Br [compound 231] | 2000 to 10000
CCN(CC)c1nc(C)nc(N(CC)c2ccc(C(C)C)cc2Br)n1 [compound 232] | < 500
CCN(c1nc(C)nc(N(C)C)n1)c1c(Br)cc(OC)cc1OC [compound 238] | < 500
CCN(c1nc(C)nc(N2CCOCC2)n1)c1c(OC)cc(OC)cc1OC [compound 239] | < 500
CCN(c1nc(C)nc(OCc2ccccc2)n1)c1ccc(C(C)C)cc1Br [compound 242, N-[2-bromo-4(1-methylethyl)phenyl]-N-ethyl-4-methyl-6-benzyloxy-1,3,5 triazin-2-amine] | 501 to 2000
CCOC(=O)C(C(=O)OCC)c1nc(C)nc(N(CC)c2ccc(C(C)C)cc2Br)n1 [compound 246] | < 500
CCN(c1nc(Cl)nc(Cl)n1)c1ccc(C(C)(C)O)cc1I [compound 249, N-[2-iodo-4-dimethylhydroxymethylphenyl]-N-ethyl-4-6-dichloro-1,3,5 triazin-2-amine] | 2000 to 10000
CCN(c1nc(C)nc(Cl)n1)c1ccc(C(C)C)cc1Br [compound 250] | 501 to 2000
CCN(c1nc(C)cc(C(=O)NC)n1)c1ccc(C(C)C)cc1Br [compound 271] | < 500
CCN(c1nc(C)cc(C(=O)N2CCN(c3ccccn3)CC2)n1)c1ccc(C(C)C)cc1Br [compound 274] | 2000 to 10000
CCN(c1nc(C)cc(CN2CCN(c3ccccc3OC)CC2)n1)c1ccc(C(C)C)cc1Br [compound 275] | < 500
CCN(c1nc(C)cc(CN(C)Cc2ccco2)n1)c1ccc(C(C)C)cc1Br [compound 276] | < 500
CCN(c1nc(C)cc(CN2CCN(c3cnccn3)CC2)n1)c1ccc(C(C)C)cc1Br [compound 278] | < 500
CCN(c1nc(C)cc(CN(C)C)n1)c1ccc(C(C)C)cc1Br [compound 279] | < 500
CCN(c1nc(C)cc(CN2CCN(c3ccccn3)CC2)n1)c1ccc(C(C)C)cc1Br [compound 280] | < 500
CCN(c1nc(C)cc(CN2CCN(c3ncccn3)CC2)n1)c1ccc(C(C)C)cc1Br [compound 281] | < 500
CCN(c1nc(C)cc(C(=O)c2c[nH]c3ccccc23)n1)c1ccc(C(C)C)cc1Br [compound 283] | 2000 to 10000
CCN(c1nc(C)cc(C(O)c2ccco2)n1)c1ccc(C(C)C)cc1Br (centres unmarked) [compound 291] | < 500
CCN(c1nc(C)cc(C(O)c2ccc(OC)cc2)n1)c1ccc(C(C)C)cc1Br (centres unmarked) [compound 292] | < 500
CCN(c1nc(C)cc(C(C)(C)O)n1)c1ccc(C(C)C)cc1Br [compound 295] | < 500
CCN(c1nc(C)cc(C(C)O)n1)c1ccc(C(C)C)cc1Br (centres unmarked) [compound 296] | < 500
